{
  "source": "ChEMBL document CHEMBL1201862",
  "about": "“PubChem BioAssay data set” (2004)",
  "key": {"HeLa": {"tested_on": "HeLa", "experiment": "ATP-based viability loss in HeLa cells – cell-based, CellTiter-Glo luminescence, cherry-pick samples, cytotoxicity control for MITF activator project, dose response (AID 540259)", "type": "functional", "settings": "Homo sapiens"}, "[1]": {"biological_target": "Aryl hydrocarbon receptor (Homo sapiens, UniProt P35869)", "sequence (P35869 whole entry)": "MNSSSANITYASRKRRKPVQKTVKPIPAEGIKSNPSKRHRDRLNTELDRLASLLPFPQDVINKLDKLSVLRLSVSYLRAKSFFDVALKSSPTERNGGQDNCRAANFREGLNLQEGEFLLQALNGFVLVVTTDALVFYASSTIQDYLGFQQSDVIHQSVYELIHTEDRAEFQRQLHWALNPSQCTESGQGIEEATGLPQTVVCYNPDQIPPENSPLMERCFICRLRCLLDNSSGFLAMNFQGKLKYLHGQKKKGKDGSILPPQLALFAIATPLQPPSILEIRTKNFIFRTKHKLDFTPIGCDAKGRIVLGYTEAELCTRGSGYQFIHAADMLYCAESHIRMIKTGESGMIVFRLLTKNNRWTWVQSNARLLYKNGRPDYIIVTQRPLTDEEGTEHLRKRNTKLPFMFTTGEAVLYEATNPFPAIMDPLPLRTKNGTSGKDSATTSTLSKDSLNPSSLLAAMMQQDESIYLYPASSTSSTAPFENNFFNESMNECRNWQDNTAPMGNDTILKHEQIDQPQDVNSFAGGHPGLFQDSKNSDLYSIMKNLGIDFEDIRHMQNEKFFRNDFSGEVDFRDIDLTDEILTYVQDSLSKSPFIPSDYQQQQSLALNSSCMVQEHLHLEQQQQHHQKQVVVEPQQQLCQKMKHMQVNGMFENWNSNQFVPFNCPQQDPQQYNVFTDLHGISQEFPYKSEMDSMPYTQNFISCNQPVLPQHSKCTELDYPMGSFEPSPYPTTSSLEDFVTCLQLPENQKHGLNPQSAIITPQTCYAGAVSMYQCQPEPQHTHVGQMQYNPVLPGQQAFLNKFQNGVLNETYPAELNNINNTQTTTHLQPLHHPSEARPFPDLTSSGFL", "settings": "Potency"}, "Cytochrome P450 3A4": {"biological_target": "Cytochrome P450 3A4 (Homo sapiens, UniProt P08684)", "sequence (P08684 whole entry)": "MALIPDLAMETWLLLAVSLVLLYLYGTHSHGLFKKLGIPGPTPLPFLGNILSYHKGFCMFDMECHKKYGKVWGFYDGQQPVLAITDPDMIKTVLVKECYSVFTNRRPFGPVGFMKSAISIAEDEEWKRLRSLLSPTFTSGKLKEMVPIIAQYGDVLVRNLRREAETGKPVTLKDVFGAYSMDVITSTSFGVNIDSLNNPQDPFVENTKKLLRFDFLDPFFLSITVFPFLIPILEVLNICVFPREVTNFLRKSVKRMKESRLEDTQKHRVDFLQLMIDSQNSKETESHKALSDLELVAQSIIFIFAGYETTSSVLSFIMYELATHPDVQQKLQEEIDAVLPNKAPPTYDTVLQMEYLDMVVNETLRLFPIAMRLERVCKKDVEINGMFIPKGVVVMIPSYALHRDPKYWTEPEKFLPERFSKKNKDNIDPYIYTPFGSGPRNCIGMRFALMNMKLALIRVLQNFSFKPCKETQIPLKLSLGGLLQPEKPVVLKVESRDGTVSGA", "settings": "Potency"}, "[2]": {"biological_target": "Long-chain-fatty-acid--AMP ligase FadD28 (Mycobacterium tuberculosis, UniProt P9WQ59)", "sequence (P9WQ59 whole entry)": "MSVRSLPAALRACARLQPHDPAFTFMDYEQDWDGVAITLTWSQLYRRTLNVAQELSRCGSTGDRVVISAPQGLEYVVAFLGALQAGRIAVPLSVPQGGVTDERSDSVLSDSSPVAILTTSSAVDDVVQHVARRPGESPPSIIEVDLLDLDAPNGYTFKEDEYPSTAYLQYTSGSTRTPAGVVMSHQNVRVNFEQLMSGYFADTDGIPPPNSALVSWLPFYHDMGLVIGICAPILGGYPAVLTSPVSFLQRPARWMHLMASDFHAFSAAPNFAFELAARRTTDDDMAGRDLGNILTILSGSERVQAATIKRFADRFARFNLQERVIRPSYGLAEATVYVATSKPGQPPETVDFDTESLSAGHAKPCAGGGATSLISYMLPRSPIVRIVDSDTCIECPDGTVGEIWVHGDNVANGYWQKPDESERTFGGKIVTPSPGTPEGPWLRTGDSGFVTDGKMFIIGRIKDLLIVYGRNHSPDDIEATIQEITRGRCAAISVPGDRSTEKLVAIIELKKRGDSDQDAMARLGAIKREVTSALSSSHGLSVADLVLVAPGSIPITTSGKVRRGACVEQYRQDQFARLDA", "experiment": "Fluorescence polarization aasay to screen for inhibitors that compete for the binding of FadD28 to a bisubstrate Measured in Biochemical System Using Plate Reader - 2147-01_Inhibitor_Dose_CherryPick_Activity.", "type": "functional, Mycobacterium tuberculosis H37Rv"}, "[3]": {"biological_target": "26S proteasome non-ATPase regulatory subunit 14 (Homo sapiens, UniProt O00487)", "sequence (O00487 whole entry)": "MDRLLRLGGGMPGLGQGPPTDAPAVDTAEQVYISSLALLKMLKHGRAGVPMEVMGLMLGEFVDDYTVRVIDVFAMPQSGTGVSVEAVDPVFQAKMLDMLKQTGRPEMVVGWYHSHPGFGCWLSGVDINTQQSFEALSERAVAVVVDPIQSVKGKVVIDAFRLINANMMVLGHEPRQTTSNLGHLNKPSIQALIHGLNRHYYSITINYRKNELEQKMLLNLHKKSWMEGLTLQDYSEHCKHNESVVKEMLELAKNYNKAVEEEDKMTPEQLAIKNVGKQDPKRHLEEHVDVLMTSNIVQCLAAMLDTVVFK", "experiment": "inhibition of proteasome subunit RPN11 – biochemical, fluorescence polarization, uHTS hits, confirmation (AID 602368)", "type": "functional"}, "Nonstructural protein 1": {"biological_target": "Nonstructural protein 1 (Influenza A virus, UniProt Q194T2)", "sequence (Q194T2 whole entry)": "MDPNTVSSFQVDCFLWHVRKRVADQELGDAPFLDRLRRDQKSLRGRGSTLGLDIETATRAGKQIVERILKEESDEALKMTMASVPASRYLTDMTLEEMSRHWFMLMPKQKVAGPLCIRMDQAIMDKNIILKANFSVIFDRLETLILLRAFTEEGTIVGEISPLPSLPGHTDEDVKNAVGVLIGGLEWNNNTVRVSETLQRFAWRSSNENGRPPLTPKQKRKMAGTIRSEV", "type": "functional, Influenza A virus (A/California/07/2009(H1N1))"}, "[4]": {"biological_target": "72 kDa type IV collagenase (Homo sapiens, UniProt P08253)", "sequence (P08253 whole entry)": "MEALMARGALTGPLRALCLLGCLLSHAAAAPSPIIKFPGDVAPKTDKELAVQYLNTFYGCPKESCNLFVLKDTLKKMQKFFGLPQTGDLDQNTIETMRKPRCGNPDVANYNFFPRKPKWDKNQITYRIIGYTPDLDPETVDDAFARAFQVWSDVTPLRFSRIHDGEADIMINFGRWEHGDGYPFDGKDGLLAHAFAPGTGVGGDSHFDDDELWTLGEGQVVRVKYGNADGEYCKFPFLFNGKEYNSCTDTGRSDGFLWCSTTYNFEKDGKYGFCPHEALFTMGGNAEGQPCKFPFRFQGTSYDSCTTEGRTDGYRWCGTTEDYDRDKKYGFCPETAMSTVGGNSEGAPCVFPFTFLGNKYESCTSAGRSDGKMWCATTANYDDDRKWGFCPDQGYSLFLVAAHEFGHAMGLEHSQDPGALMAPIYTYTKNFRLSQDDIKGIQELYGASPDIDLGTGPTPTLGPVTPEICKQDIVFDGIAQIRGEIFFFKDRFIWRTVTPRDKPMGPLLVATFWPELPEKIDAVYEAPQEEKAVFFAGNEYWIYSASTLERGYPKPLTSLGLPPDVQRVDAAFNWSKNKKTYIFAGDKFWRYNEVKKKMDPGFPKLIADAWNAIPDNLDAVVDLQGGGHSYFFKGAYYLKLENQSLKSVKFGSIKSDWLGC", "experiment": "Dose Response validation of uHTS RPN11 inhibitor hits using a MMP-2 Fluorescence assay.", "type": "functional"}, "Prothrombin": {"biological_target": "Prothrombin (Bos taurus, UniProt P00735)", "experiment": "thrombin protease inhibitors – biochemical, fluorescence polarization, uHTS hits, dose response (AID 602369)", "type": "functional"}, "Protein Wnt-3a": {"biological_target": "Protein Wnt-3a (Mus musculus, UniProt P27467)", "sequence (P27467 whole entry)": "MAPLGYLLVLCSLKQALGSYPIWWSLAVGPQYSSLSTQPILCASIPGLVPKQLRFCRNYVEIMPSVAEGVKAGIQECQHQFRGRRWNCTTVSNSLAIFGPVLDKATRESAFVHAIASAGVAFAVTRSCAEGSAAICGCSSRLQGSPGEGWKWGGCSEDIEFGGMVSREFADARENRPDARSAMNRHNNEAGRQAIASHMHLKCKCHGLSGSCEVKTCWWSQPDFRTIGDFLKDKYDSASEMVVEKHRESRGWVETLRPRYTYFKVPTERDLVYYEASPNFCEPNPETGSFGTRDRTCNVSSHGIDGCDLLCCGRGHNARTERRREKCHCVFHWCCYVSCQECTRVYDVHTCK", "experiment": "antagonism of Wnt3a pathway luciferase reporter – Wnt-LIGHT cells, luminescence, selectivity assay for Gli-SUFU antagonist project, dose response (AID 651570);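 further: Wnt-LIGHT reporter cells stimulated with conditioned medium from Wnt3a-producing cells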", "type": "functional", "settings": "read-out: IC50_Mean"}, "Melanocortin receptor 4": {"biological_target": "Melanocortin receptor 4 (Homo sapiens, UniProt P32245)", "sequence (P32245 whole entry)": "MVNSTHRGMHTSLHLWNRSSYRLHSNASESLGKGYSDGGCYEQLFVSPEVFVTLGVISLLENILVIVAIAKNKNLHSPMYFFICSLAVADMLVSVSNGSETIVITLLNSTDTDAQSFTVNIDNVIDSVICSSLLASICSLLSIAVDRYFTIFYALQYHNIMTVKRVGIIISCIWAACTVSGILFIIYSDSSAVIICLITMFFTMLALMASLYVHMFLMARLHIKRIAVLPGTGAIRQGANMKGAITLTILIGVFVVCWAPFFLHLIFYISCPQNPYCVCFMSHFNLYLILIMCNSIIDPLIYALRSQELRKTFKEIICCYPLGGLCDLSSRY", "experiment": "inhibitors of MC4R cAMP signaling – cell-based, TR-FRET, biased antagonists, dose response (AID 602298);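 further: antagonist potency against agonist-stimulated cAMP production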", "type": "functional"}, "[5]": {"experiment": "reduction of Shn3 3'UTR-driven luciferase in osteoblasts – cell-based, Clone20 osteoblasts, firefly luciferase, cherry-picked, dose response (AID 624132)", "type": "functional"}, "[6]": {"experiment": "loss of viability in HepG2 cells – cell-based, CellTiter-Glo, cherry-picked, cytotoxicity control for Shn3 inhibitor project, dose response (AID 624134)", "type": "functional"}, "[7]": {"experiment": "cAMP pathway inhibition in counterscreen cell line – TR-FRET cAMP detection, counter-screen for MC4R biased antagonist project, dose response (AID 602305);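 further: U2OS cells stimulated with forskolin near its EC80 as the cAMP inducer; potency is for inhibition of forskolin-stimulated cAMP signaling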", "type": "functional, cell-based"}, "[8]": {"experiment": "non-specific 3'UTR reporter inhibition in Clone20-Shn3RL – cell-based, Renilla luciferase, cherry-picked, counter-screen for Shn3 inhibitor project, dose response (AID 624133)", "type": "functional"}, "[9]": {"biological_target": "Ras and Rab interactor 1/Tyrosine-protein kinase ABL1 (Homo sapiens, UniProt P00519+Q13671)", "type": "functional"}},
  "note": "The source made the active and inactive calls.",
  "data": [
    {"smiles": "Nc1ccc2cc3ccccc3cc2c1", "note": "[2-AMINOANTHRACENE]", "values": [
      {"measurement": "AC50", "setting": "HeLa", "result": "122 µM (active)"},
      {"measurement": "AC50", "setting": "[1]", "result": "25.1 µM (inconclusive)"},
      {"measurement": "AC50", "setting": "Cytochrome P450 3A4", "result": "15.8 µM (inconclusive)"}
    ]},
    {"smiles": "CCc1cccc2c(C(=O)COC(=O)c3cnc(C)cn3)c[nH]c12", "values": [
      {"measurement": "AC50", "setting": "[2]", "result": "20 µM (active)"}
    ]},
    {"smiles": "O=[N+]([O-])c1ccc(O)c(/C=N/NC2=NS(=O)(=O)c3ccccc32)c1", "values": [
      {"measurement": "IC50", "setting": "[3]", "result": "34.9 µM (active)"},
      {"measurement": "IC50", "setting": "Nonstructural protein 1", "result": "2.35 µM (active)"},
      {"measurement": "IC50", "setting": "[4]", "result": "5.41 µM (active)"},
      {"measurement": "IC50", "setting": "Prothrombin", "result": "36.8 µM (active)"}
    ]},
    {"smiles": "CCOC(=O)c1c(NC(=O)COc2cccc3c2CCN(C)C3=O)sc2c1CCC2", "values": [
      {"measurement": "IC50", "setting": "Protein Wnt-3a", "result": "6.12 µM (active)"},
      {"measurement": "IC50", "setting": "Melanocortin receptor 4", "result": "> 64.6 µM (inactive)"},
      {"measurement": "AC50", "setting": "[5]", "result": "5.44 µM (active)"},
      {"measurement": "AC50", "setting": "[6]", "result": "41.7 µM (active)"},
      {"measurement": "IC50", "setting": "[7]", "result": "> 64.6 µM (inactive)"},
      {"measurement": "AC50", "setting": "[8]", "result": "22.8 µM (active)"}
    ]},
    {"smiles": "Oc1nc2ccccc2n1C1CCN(C(c2nnnn2C2CCCCC2)C2CC2)CC1", "note": "(stereo not given)", "values": [
      {"measurement": "IC50", "setting": "[9]", "result": "3.14 µM (active)"}
    ]}
  ]
}
